PubChem BioAssay AID1259411 (Chemical Carcinogenesis Research Information System (CCRIS), 2018)
Active and inactive are the calls of the source. The rule behind the calls is not given here.

System: rodent carcinogenicity bioassays, tumor incidence
Experiment: CCRIS carcinogenicity studies
Outline: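 Archive of carcinogenicity, mutagenicity, tumor promotion and tumor inhibition results drawn from journals, NCI reports and other sources, expert-reviewed; covers 1985-2011 and is no longer updated.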

O=NN1CCOCC1
carcinogen call (Species: FISH, Route: ORAL, Tumor Site: Type of Lesion: LIVER): active; positive | carcinogen call (Species: HAMSTER, Route: ORAL, Tumor Site: Type of Lesion: LIVER): active; positive | carcinogen call (Species: HAMSTER, Route: SUBCUTANEOUS, Tumor Site: Type of Lesion: TRACHEA, NASAL CAVITY): active; positive | carcinogen call (Species: HAMSTER, Strain/Sex: SYRIAN/MALE, Route: INHALATION, Dose: 0, 14.4 MG/M3 4 HR/D 4-5 D/WK FOR 5 WK FOR A DAILY DOSE OF 0, 1.8 MG/KG (STUDY DURATION: 91 WK), Dose: 0, 14.4 MG/M3 4 HR/D 4-5 D/WK FOR 5 WK FOR A DAILY DOSE OF 0, 1.8 MG/KG (STUDY DURATION: 91 WK), Tumor Site: Type of Lesion: LIVER: HEPATOCELLULAR CARCINOMA OR HEMANGIOENDOTHELIOMA OR CARCINOMA, FORESTOMACH: PAPILLOMA, TRACHEA: PAPILLOMA, Tumor Site: Type of Lesion: LIVER: HEPATOCELLULAR CARCINOMA OR HEMANGIOENDOTHELIOMA OR CARCINOMA, FORESTOMACH: PAPILLOMA, TRACHEA: PAPILLOMA): active; positive | carcinogen call (Species: HAMSTER, Strain/Sex: SYRIAN/MALE, Route: INTRAGASTRIC, Dose: 0, 26 MG/ML IN 0.2 ML STERILIZED WATER 1/WK FOR 26 WK (TOTAL DOSE 135 MG) (STUDY DURATION: LIFESPAN), Tumor Site: Type of Lesion: NASAL CAVITY: CARCINOMA, TRACHEA: ADENOMA): active; positive | carcinogen call (Species: MOUSE, Route: ORAL, Tumor Site: Type of Lesion: LIVER, LUNG): active; positive | carcinogen call (Species: MOUSE, Strain/Sex: STRAIN-A/FEMALE, Route: ORAL, Dose: 0, 0.2 UMOL/ML IN DRINKING WATER FOR 10 WK (TOTAL DOSE: 0, 54 UMOL) FOLLOWED BY TAP WATER FOR 20 WK (STUDY DURATION: 30, Tumor Site: Type of Lesion: LUNG: TUMORS): active; positive | carcinogen call (Species: RAT, Route: ORAL, Tumor Site: Type of Lesion: KIDNEY, LIVER): active; positive | carcinogen call (Species: RAT, Strain/Sex: F344/FEMALE, Route: GAVAGE, Dose: 0, 10 MG/WK FOR A TOTAL DOSE OF 1.9 MMOL (STUDY DYRATION: 30 WK), Tumor Site: Type of Lesion: ESOPHAGUS: TUMOR, LIVER: TUMOR, THYROID: TUMOR, Tumor Site: Type of Lesion: ESOPHAGUS: TUMOR, LIVER: TUMOR, THYROID: TUMOR): active; positive | carcinogen call (Species: RAT, Strain/Sex: F344/FEMALE, Route: INTRAVESICULAR, Dose: 0, 5 MG IN 0.2 ML ETHANOL: DEIONIZED WATER (1:3) 2/WK FOR 30 WK (TOTAL DOSE 2.6 MMOL) (STUDY DURATION: LIFESPAN), Tumor Site: Type of Lesion: LIVER: TUMOR, NASAL MUCOSA: TUMOR, ESOPHAGUS: TUMOR, Tumor Site: Type of Lesion: LIVER: TUMOR, NASAL MUCOSA: TUMOR, ESOPHAGUS: TUMOR): active; positive | carcinogen call (Species: RAT, Strain/Sex: F344/FEMALE, Route: ORAL, Dose: 0, 26.5 MG/L IN DRINKING WATER 5 D/WK FOR 50 WK (TOTAL DOSE: 0; 1.1 MMOL) (STUDY DURATION: 124 WK), Dose: 0, 26.5 MG/L IN DRINKING WATER 5 D/WK FOR 50 WK (TOTAL DOSE: 0; 1.1 MMOL) (STUDY DURATION: 124 WK), Tumor Site: Type of Lesion: LIVER: HEPATOCELLULAR TUMOR, HEMANGIOSARCOMA): active; positive | carcinogen call (Species: RAT, Strain/Sex: F344/FEMALE, Route: ORAL, Dose: 40 MG/L IN DRINKING WATER FOR 50 WK, Tumor Site: Type of Lesion: LIVER: HEPATOCELLULAR CARCINOMA, HEMANGIOENDOTHELIAL SARCOMA, ESOPHAGUS: PAPILLOMA, CARCINOMA): active; positive | carcinogen call (Species: RAT, Strain/Sex: F344/MALE, Route: ORAL, Dose: 0, 0.02% IN DRINKING WATER FOR 8 WK (STUDY DURATION: 20 WK), Tumor Site: Type of Lesion: LIVER: HEPATOCELLULAR CARCINOMA): active; positive | carcinogen call (Species: RAT, Strain/Sex: F344/MALE, Route: ORAL, Dose: 16, 40 MG/L IN DRINKING WATER FOR 50 WK, Tumor Site: Type of Lesion: LIVER: HEPATOCELLULAR CARCINOMA, HEMANGIOENDOTHELIAL SARCOMA, ESOPHAGUS: PAPILLOMA): active; positive | carcinogen call (Species: RAT, Strain/Sex: SD/G/MALE, Route: ORAL, Dose: 0, 0.02% IN DRINKING WATER FOR 8 WK (STUDY DURATION: 20 WK)): inactive; negative | carcinogen call (Species: RAT, Strain/Sex: SPRAGUE-DAWLEY/FEMALE, Route: INHALATION, Dose: 0, 7.7 MG/M3 4 HR/D 4-5 D/WK FOR 6 WK FOR A DAILY DOSE OF 0, 0.5 MG/KG (STUDY DURATION: 124 WK), Dose: 0, 7.7 MG/M3 4 HR/D 4-5 D/WK FOR 6 WK FOR A DAILY DOSE OF 0, 0.5 MG/KG (STUDY DURATION: 124 WK), Tumor Site: Type of Lesion: LIVER: HEPATOCELLULAR CARCINOMA, NEOPLASTIC NODULE): active; positive | carcinogen call (Species: RAT, Strain/Sex: WS/MALE, Route: ORAL, Dose: 0, 0.02% IN DRINKING WATER FOR 8 WK (STUDY DURATION: 20 WK), Tumor Site: Type of Lesion: LIVER: HEPATOCELLULAR CARCINOMA): active; positive

N#CCCC(Br)(C#N)CBr (centres undefined)
carcinogen call (Species: Mouse, Strain/Sex: B6C3F1/Female (50/Group), Route: Dermal, Dose: 0, 0.6, 2, 6 mg/kg in 95% ethanol on clipped area of skin 5 d/wk for 2 yr, Dose: 0, 0.6, 2, 6 mg/kg in 95% ethanol on clipped area of skin 5 d/wk for 2 yr): inactive; negative | carcinogen call (Species: Mouse, Strain/Sex: B6C3F1/Male (50/Group), Route: Dermal, Dose: 0, 0.6, 2, 6 mg/kg in 95% ethanol on clipped area of skin 5 d/wk for 2 yr, Dose: 0, 0.6, 2, 6 mg/kg in 95% ethanol on clipped area of skin 5 d/wk for 2 yr): inactive; negative | carcinogen call (Species: Rat, Strain/Sex: F344/N / Female (50/Group), Route: Dermal, Dose: 0, 2, 6, 18 mg/kg in 95% ethanol on clipped area of skin 5 d/wk for 2 yr, Dose: 0, 2, 6, 18 mg/kg in 95% ethanol on clipped area of skin 5 d/wk for 2 yr): inactive; negative | carcinogen call (Species: Rat, Strain/Sex: F344/N / Male (50/Group), Route: Dermal, Dose: 0, 2, 6, 18 mg/kg in 95% ethanol on clipped area of skin 5 d/wk for 2 yr, Dose: 0, 2, 6, 18 mg/kg in 95% ethanol on clipped area of skin 5 d/wk for 2 yr): inactive; negative

Cc1ccc2c3c(cccc13)-c1ccccc1-2
carcinogen call (Species: MOUSE, Strain/Sex: CD-1/FEMALE, Route: INTRAPERITONEAL, Dose: 0, 3.46, 17.3 UMOL (TOTAL DOSE) IN DMSO ADMINISTERED ON DAYS 1,8, AND 15 OF LIFE (STUDY DURATION: 52 WK), Dose: 0, 3.46, 17.3 UMOL (TOTAL DOSE) IN DMSO ADMINISTERED ON DAYS 1,8, AND 15 OF LIFE (STUDY DURATION: 52 WK)): inactive; negative | carcinogen call (Species: MOUSE, Strain/Sex: CD-1/MALE, Route: INTRAPERITONEAL, Dose: 0, 3.46, 17.3 UMOL (TOTAL DOSE) IN DMSO ADMINISTERED ON DAYS 1,8, AND 15 OF LIFE (STUDY DURATION: 52 WK), Dose: 0, 3.46, 17.3 UMOL (TOTAL DOSE) IN DMSO ADMINISTERED ON DAYS 1,8, AND 15 OF LIFE (STUDY DURATION: 52 WK), Tumor Site: Type of Lesion: LIVER: TUMORS): active; positive

CC(=O)Nc1c(I)c(C(=O)N[C@@H](C=O)[C@@H](O)[C@H](O)[C@H](O)CO)c(I)c(N(C)C(C)=O)c1I
carcinogen call (Species: MOUSE, Strain/Sex: ICR/FEMALE, Route: INTRABRONCHIAL, Dose: 0, 75 µL ONCE ADMINISTERED TO WEANLING MICE (STUDY DURATION: LIFETIME), Tumor Site: Type of Lesion: LUNG: TUMOR): active; positive
